Source: patent US11098044B2, “Imidazopyridinyl compounds and use thereof for treatment of neurodegenerative disorders” (1ST Biotherapeutics, Inc., priority 2019, dated 2021)

Tests used:
Format in all cases: biochemical
LRRK2 G2019S = LRRK2 G2019S (Homo sapiens (Human), UniProt Q5S007, G2019S); experiment: LRRK2 G2019S Kinase Assay (Adapta); conditions: 100 μM ATP, LRRKtide substrate; read-out: LRRK2_G2019S IC50
Procedure: (§1) The LRRK2 and LRRK2 G2019S kinase assays were performed using the Adapta™ technology in ThermoFisher Scientific. This experiment was carried out according to the supplier's protocol. Briefly, assay conditions were as follows. The mixture of substrate (LRRKtide) and each kinase was prepared in 50 mM Tris pH 8.5, 0.01% BRIJ-35, 10 mM MgCl2, 1 mM EGTA, 0.02% NaN3. Assays were performed in the presence of 70 μM ATP and 100 μM ATP (KmATP) in LRRK2 and LRRK2 G2019S, respectively. The reaction was progressed at room temperature for 1 hour. Upon completion of kinase reaction, 5 μL of Detection Mix was added and after 60 min incubation time, the emission ratio of 665/615 nm was calculated.

LRRK2 (WT) = LRRK2 (WT) (Homo sapiens (Human), UniProt Q5S007); experiment: LRRK2 Kinase Assay (Adapta); conditions: 70 μM ATP, LRRKtide substrate
LRRK2 (WT), sequence (Q5S007 whole entry): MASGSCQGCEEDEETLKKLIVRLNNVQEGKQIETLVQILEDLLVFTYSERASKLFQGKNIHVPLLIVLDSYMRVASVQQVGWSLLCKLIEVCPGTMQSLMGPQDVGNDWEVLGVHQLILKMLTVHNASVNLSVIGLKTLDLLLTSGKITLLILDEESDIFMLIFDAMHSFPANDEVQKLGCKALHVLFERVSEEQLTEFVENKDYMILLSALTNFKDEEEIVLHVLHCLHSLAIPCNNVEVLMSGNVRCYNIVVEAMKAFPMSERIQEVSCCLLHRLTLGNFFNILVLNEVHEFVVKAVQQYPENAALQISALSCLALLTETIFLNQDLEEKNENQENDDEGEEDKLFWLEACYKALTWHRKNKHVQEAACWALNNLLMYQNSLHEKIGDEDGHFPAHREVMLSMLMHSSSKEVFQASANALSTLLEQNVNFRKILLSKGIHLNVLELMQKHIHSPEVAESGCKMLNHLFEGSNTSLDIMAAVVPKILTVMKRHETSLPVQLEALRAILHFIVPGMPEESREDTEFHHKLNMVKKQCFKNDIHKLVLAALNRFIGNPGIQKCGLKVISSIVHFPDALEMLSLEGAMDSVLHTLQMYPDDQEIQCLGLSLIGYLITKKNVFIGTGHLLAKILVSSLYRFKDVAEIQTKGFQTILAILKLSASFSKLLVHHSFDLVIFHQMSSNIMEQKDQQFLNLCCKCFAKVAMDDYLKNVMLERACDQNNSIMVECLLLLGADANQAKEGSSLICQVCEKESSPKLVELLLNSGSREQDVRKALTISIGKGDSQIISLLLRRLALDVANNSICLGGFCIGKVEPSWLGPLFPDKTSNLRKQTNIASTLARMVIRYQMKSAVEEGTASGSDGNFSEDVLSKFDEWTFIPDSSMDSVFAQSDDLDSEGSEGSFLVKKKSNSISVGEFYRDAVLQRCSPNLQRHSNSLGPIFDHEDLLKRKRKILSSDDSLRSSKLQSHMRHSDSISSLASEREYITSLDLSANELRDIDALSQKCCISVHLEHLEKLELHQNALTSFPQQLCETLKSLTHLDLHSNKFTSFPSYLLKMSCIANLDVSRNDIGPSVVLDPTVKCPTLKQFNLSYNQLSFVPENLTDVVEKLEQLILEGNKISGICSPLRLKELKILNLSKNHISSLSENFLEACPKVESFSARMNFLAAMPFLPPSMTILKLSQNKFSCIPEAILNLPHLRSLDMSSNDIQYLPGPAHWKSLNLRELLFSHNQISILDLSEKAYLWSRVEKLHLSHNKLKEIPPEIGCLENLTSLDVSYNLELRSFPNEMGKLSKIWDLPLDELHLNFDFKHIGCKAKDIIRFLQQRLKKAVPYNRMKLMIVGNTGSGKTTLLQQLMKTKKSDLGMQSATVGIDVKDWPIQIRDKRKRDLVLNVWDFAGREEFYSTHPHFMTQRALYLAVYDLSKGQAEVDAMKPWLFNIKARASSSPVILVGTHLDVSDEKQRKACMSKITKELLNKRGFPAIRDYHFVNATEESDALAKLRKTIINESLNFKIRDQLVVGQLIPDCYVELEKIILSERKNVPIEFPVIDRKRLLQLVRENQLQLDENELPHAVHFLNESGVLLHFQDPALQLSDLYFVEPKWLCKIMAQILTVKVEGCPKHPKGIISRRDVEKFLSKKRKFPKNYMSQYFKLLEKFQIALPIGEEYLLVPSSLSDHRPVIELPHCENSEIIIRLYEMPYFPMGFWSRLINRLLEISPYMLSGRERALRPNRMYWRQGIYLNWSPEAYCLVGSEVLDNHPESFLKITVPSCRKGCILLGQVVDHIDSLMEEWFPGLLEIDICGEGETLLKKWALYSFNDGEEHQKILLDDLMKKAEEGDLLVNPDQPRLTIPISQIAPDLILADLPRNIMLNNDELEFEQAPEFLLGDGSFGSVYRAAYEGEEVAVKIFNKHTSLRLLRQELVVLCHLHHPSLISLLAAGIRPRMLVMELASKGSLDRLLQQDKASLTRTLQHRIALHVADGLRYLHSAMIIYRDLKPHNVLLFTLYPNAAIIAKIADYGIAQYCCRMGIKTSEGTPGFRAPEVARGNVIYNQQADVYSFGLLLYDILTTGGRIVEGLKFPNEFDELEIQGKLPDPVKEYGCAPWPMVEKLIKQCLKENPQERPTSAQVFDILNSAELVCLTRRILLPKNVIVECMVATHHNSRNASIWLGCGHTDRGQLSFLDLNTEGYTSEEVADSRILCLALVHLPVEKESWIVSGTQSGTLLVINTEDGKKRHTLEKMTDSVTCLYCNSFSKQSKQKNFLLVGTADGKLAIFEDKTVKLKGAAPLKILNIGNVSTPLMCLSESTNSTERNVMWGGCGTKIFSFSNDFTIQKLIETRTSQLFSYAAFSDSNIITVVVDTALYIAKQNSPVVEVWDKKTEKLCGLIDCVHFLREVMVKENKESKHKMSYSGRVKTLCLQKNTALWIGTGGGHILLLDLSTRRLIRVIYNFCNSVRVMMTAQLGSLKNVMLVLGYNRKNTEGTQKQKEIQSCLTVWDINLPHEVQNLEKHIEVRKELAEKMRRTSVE
Procedure: as §1

[1] = target: c-Abl (His-tagged recombinant human ABL1) (Homo sapiens (Human), UniProt P00519); experiment: c-abl Kinase Assay (ADP-Glo); conditions: ATP (25 μM), Abltide substrate
c-Abl (His-tagged recombinant human ABL1), sequence (P00519 whole entry): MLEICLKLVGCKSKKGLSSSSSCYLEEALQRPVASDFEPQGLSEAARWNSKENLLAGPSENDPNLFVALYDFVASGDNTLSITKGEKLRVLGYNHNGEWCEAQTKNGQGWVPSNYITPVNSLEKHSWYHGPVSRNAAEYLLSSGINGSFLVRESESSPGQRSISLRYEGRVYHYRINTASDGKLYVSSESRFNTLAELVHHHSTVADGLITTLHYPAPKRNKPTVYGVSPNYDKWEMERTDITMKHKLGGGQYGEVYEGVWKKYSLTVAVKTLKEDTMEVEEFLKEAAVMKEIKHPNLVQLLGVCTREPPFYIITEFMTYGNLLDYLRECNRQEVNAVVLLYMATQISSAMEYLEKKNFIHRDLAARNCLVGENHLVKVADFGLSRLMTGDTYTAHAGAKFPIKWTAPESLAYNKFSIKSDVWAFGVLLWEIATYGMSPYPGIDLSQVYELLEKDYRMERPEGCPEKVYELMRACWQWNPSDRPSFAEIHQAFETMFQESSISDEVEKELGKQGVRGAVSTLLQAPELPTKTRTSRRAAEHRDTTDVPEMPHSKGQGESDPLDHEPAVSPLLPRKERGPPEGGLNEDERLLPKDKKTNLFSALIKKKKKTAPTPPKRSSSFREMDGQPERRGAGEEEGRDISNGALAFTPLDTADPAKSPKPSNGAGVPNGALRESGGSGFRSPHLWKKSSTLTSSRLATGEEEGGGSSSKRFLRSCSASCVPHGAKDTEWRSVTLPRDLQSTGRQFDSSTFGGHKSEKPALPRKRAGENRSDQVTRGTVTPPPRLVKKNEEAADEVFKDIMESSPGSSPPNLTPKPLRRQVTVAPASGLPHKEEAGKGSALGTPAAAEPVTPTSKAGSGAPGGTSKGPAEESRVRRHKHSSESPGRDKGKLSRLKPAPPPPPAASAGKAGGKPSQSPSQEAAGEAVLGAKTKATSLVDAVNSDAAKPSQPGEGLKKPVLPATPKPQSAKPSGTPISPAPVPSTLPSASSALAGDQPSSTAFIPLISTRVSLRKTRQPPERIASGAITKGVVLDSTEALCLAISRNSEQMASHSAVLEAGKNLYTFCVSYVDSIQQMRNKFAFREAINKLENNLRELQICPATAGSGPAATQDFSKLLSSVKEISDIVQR
Procedure: ADP-Glo assay kit was purchased from Promega. Magnesium chloride (MgCl2), bovine serum albumin (BSA), ethylene glycol-bis(p-aminoethyl ether)-N,N,N′,N′-tetraacetic acid (EGTA), triton X-100, 1,4-dithiothreitol (DTT) and dimethyl sulfoxide (DMSO) were purchased from Sigma-Aldrich. HEPES buffer was purchased from Gibco. ABL1 kinase and Abltide were purchased from Signalchem.
c-Abl kinase activity was measured by Promega's ADP-Glo™ Assay. In this assay, His-tagged recombinant human ABL1 (0.25 ng/μl) is incubated with 5 μL of compounds (0.5% DMSO), 5 μL of Abltide (0.01 μg/μl) and 5 μL of ATP (25 μM) in buffer (50 mM HEPES, 7.5; 10 mM MgCl2; 1 mM EGTA; 0.05% BSA; 0.01% Triton X-100; 2 mM DTT). The assay was started by incubating the reaction mixture in a 96-well plate at 30° C. for 30-min. After the incubation, 25 μL ADP-Glo reagent was added and the reaction was incubated at room temperature for 40-min to stop the reaction and degrade residual ATP. The ADP product was then converted to ATP by adding 50 μL per well of detection reagent. Luminescence was detected after 30-min room temperature incubation with the Molecular device I3X plate reader. The IC50 values were calculated from a series of percent inhibition values determined at a range of inhibitor concentration using software routines as implemented in the GraphPad Prism 7 software and Sigma Plot 13.0.

LRRK2 G2019S, sequence (Q5S007 whole entry G2019S): as the sequence (Q5S007 whole entry) above, with G2019S counted along it

IC50 (LRRK2 G2019S) [nM]	IC50 (LRRK2 (WT)) [nM]	IC50 [1] [nM]	Compound
10 to 100	101 to 1000	< 10	Cc1cc(F)ccc1-c1ccc2nc(NC(=O)[C@@H]3C[C@@H]3F)cn2c1 [Example 39, (1S,2S)-2-fluoro-N-(6-(4-fluoro-2-methylphenyl)imidazo[1,2-a]pyridin-2-yl)cyclopropane-1-carboxamide]
10 to 100	101 to 1000	< 10	Cc1c(-c2ccc3nc(NC(=O)[C@@H]4C[C@@H]4F)cn3c2)ccc(F)c1F [Example 44, (1S,2S)—N-(6-(3,4-difluoro-2-methylphenyl)imidazo[1,2-a]pyridin-2-yl)-2-fluorocyclopropane-1-carboxamide]
> 1000	> 1000	101 to 1000	Cc1c(F)cncc1-c1ccc2nc(NC(=O)[C@@H]3C[C@@H]3F)c(Cl)n2c1 [Example 16, (1S,2S)—N-(3-chloro-6-(5-fluoro-4-methylpyridin-3-yl)imidazo[1,2-a]pyridin-2-yl)-2-fluorocyclopropane-1-carboxamide]
10 to 100	101 to 1000	< 10	Cc1c[nH]c2ncc(-c3ccc4nc(NC(=O)[C@@H]5C[C@@H]5F)cn4c3)cc12 [Example 53, (1S,2S)-2-fluoro-N-(6-(3-methyl-1H-pyrrolo[2,3-b]pyridin-5-yl)imidazo[1,2-a]pyridin-2-yl)cyclopropane-1-carboxamide]
10 to 100	101 to 1000	< 10	Cc1cc(F)c(O)cc1-c1ccc2nc(NC(=O)[C@@H]3C[C@@H]3F)cn2c1 [Example 43, (1S,2S)-2-fluoro-N-(6-(4-fluoro-5-hydroxy-2-methylphenyl)imidazo[1,2-a]pyridin-2-yl)cyclopropane-1-carboxamide]
> 1000	> 1000	> 1000	CN(C)Cc1c(F)cccc1-c1ccc2nc(NC(=O)[C@@H]3C[C@@H]3F)cn2c1 [Example 84, (1S,2S)—N-(6-(2-((dimethylamino)methyl)-3-fluorophenyl)imidazo[1,2-a]pyridin-2-yl)-2-fluorocyclopropanecarboxamide]
101 to 1000	101 to 1000	< 10	Cc1c(-c2ccc3nc(NC(=O)[C@@H]4C[C@@H]4F)cn3c2)ccc(Cl)c1F [Example 46, (1S,2S)—N-(6-(4-chloro-3-fluoro-2-methylphenyl)imidazo[1,2-a]pyridin-2-yl)-2-fluorocyclopropane-1-carboxamide]
101 to 1000	101 to 1000	10 to 100	Nc1ccc(-c2ccc3nc(NC(=O)[C@@H]4C[C@@H]4F)cn3c2)cn1 [Example 55, (1S,2S)—N-(6-(6-aminopyridin-3-yl)imidazo[1,2-a]pyridin-2-yl)-2-fluorocyclopropane-1-carboxamide]
> 1000	> 1000	101 to 1000	Cc1ccncc1-c1ccc2nc(NC(=O)[C@@H]3C[C@@H]3F)c(C)n2c1 [Example 5, (1S,2S)-2-fluoro-N-(3-methyl-6-(4-methylpyridin-3-yl)imidazo[1,2-a]pyridin-2-yl)cyclopropane-1-carboxamide]
101 to 1000	101 to 1000	10 to 100	Cc1c(F)cccc1-c1ccc2nc(NC(=O)C3CC(F)(F)C3)cn2c1 [Example 79, 3,3-difluoro-N-(6-(3-fluoro-2-methylphenyl)imidazo[1,2-a]pyridin-2-yl)cyclobutanecarboxamide]
101 to 1000	101 to 1000	< 10	Cc1cccc(-c2ccc3nc(NC(=O)[C@@H]4C[C@@H]4F)cn3c2)c1C [Example 22, (1S,2S)—N-(6-(2,3-dimethylphenyl)imidazo[1,2-a]pyridin-2-yl)-2-fluorocyclopropane-1-carboxamide]
10 to 100	10 to 100	10 to 100	Cc1cc(F)ncc1-c1ccc2nc(NC(=O)[C@@H]3C[C@@H]3F)cn2c1 [Example 67, (1S,2S)-2-fluoro-N-(6-(6-fluoro-4-methylpyridin-3-yl)imidazo[1,2-a]pyridin-2-yl)cyclopropanecarboxamide]
